Assay results published in ChEMBL document CHEMBL3627608, “Crystal structures of human RIP2 kinase catalytic domain complexed with ATP-competitive inhibitors: Foundations for understanding inhibitor selectivity” (Bioorg Med Chem, 2015).

What was measured:
[1] = target: Megakaryocyte-associated tyrosine-protein kinase (Homo sapiens) (UniProt P42679); experiment: Inhibition of CTK (unknown origin) at 10 uM after 120 mins P33 radiolabeled kinase activity assay
[2] = target: Serine/threonine-protein kinase 26 (Homo sapiens) (UniProt Q9P289); experiment: Inhibition of MST4 (unknown origin) at 10 uM after 120 mins P33 radiolabeled kinase activity assay
Sequence of Serine/threonine-protein kinase 26 (Homo sapiens) (Q9P289 2-416 limits assumed): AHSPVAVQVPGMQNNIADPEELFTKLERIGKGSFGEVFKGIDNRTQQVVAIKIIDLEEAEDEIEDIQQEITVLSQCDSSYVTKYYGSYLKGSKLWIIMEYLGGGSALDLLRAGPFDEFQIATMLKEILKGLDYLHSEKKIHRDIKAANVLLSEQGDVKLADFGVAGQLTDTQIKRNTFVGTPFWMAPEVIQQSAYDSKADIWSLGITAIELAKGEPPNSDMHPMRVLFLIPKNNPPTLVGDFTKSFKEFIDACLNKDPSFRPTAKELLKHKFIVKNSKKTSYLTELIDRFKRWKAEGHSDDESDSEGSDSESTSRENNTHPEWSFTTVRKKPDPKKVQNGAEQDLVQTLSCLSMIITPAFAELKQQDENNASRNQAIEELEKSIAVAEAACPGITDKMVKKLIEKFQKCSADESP

Sequence of Megakaryocyte-associated tyrosine-protein kinase (Homo sapiens) (P42679 whole entry): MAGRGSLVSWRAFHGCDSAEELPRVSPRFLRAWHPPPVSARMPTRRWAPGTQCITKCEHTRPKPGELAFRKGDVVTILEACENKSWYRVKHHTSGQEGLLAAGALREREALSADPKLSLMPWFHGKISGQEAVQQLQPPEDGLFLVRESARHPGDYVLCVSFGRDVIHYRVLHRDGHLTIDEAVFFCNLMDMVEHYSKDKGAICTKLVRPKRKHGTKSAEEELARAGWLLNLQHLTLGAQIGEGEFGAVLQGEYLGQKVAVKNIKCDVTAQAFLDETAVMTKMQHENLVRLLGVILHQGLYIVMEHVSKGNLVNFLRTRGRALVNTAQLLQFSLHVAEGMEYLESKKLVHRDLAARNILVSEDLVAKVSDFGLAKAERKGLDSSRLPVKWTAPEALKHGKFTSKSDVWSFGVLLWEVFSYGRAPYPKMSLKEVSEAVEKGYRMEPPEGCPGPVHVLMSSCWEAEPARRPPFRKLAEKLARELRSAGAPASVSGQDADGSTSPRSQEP

SMILES: COCCNC(=O)c1ccc2c(c1)nc(-c1cnc(-c3ccc(Cl)cc3)[nH]1)n2CCOC
- inhibition [1]: 10.8%
- inhibition [2]: 3.31%
